{"source": "patent US20240158447A1", "about": "“PEPTIDES FOR USE IN THE TREATMENT OR PREVENTION OF MYOCARDIAL DAMAGE” (THE UNIVERSITY OF WESTERN AUSTRALIA, priority 2020, published 2024)", "key": {"Cavβ2 subunit": {"biological_target": "T1, Cavβ2 subunit (Homo sapiens, UniProt Q08289)", "T1 construct": "incubated with 100 μg of Cavβ2 subunit from cardiac homogenate and cytoplasmic protein preparation; from tissue; host or cells: cardiac homogenate and cytoplasmic protein preparation", "assay": "Competitive binding affinity assay, biotinylated AID affinity beads vs Cavβ2 subunit (Example 9)", "conditions": "dose-response 0, 10 nM to 100 μM peptide; FIG. 9", "experimental": "In this experiment, a binding affinity assay was utilized to examine the binding efficacy of AID peptide variants presented in Table 8, compared to the original AID peptide.\nBiotinylation of original AID (no TAT): For each reaction (a dose-response curve consisted of 6 reactions), 0.02 nM […] was incubated in biotinylation solution (0.1M MES buffer containing 1 nM amine-PEG11-biotin and 0.2 nM EDC) for 2 hrs at room temperature with agitation (400 rpm). Affinity beads (Dynabeads M-280 Streptavidin, ThermoFisher Scientific) were then incubated with biotinylated AID peptide for 30 min at room temperature with agitation (400 rpm). Afterwards, biotinylated AID-coated affinity beads were washed, initially in 0.1% BSA in PBS and then three times in PBS for 3 min.\nBiochem J. 2000; 348 Pt 3:657-65; Haase H, Striessnig J, Holtzhauer M, Vetter R, Glossmann H. A rapid procedure for the purification of cardiac 1,4-dihydropyridine receptors from porcine heart. Eur J Pharmacol. 1991; 207(1):51-9).\nCompetitive binding of AID-affinity beads and Cavβ2 subunit: Cavβ2-AID mutant peptide dilutions were then incubated with biotinylated AID-coated affinity beads for 2 hrs at room temperature with gentle agitation (400 rpm). Samples were placed on a magnetic stand to allow affinity beads to migrate to the magnet. Supernatant was removed and treated with 1× sample buffer (62.5 mM Tris-HCl, pH 6.8, 2% SDS, 10% glycerol, 100 mM DTT, 0.002% Bromophenol Blue) for 5 min at 95° C. Resulting protein was analysed by immunoblot."}, "Guinea pig hearts": {"test_system": "Guinea pig hearts", "assay": "Myocardial ischemia-reperfusion injury, Langendorff hearts ex vivo (CK, LDH, GSH:GSSG)", "conditions": "for Creatine Kinase (CK) activity in perfusate: FIG. 6(a); for Lactate Dehydrogenase (LDH) activity in perfusate: FIG. 6(b); for GSH:GSSG ratio in whole heart tissue: FIG. 6(c)", "protocol": "Adult male guinea pigs were anesthetized with pentobarbitone sodium (240 mg/kg) via intraperitoneal injection prior to excision of the heart. Guinea pig hearts were cannulated onto a Langendorff apparatus via the aorta and perfused retrogradely with Ca^2+ containing KHB comprising (in mM): 120 NaCl, 25 NaHCO3, 4.8 KCl, 2.2 MgSO4, 1.2 NaH2PO4, 11 glucose and 1.5 CaCl2 (pH=7.35 with O2/CO2 at 37° C.) at 37° C. for 30 min at a rate of 7 mL/min, followed by 30 min no-flow ischemia, then 30 min reperfusion as previously described.\nPerfusates were collected 20 and 25 min pre-ischemia and 20 and 30 min following reperfusion. A single dose of 0.5-10 μM AID(S)-TAT, AID-TAT, peptide 6 or peptide 7 was added to Ca^2+-containing KHB solution just prior to reperfusion. Creatine Kinase (CK) and Lactate Dehydrogenase (LDH) activity was measured in perfusates collected pre- and post-ischemia, and post-ischemia values normalized to pre-ischemia values.\nFor each sample, 10 μL of perfusate was added to 100 μL CK enzyme reagent (CK NAC-activated diagnostic kit, Randox Laboratories) and the rate of increase in absorbance recorded over 15 min at 30° C. using a spectrophotometer (PowerWave XS, BioTek, 340 nm).\nTo determine LDH activity, 150 μL of each sample was mixed with 50 μL of LDH reagent (50 mM imidazole buffer, 375 μM NADH, pyruvate and 0.05% BSA, pH=7) and the rate of decrease in absorbance recorded over 15 min at 25° C. using a spectrophotometer (PowerWave XS, BioTek, 340 nm).\nGSSG was calculated by subtracting GSH from total glutathione."}, "cTnI-G203S mice": {"test_system": "cTnI-G203S mice", "assay": "Myocardial fibrosis, Masson's Trichrome collagen volume fraction", "format": "in vivo, mouse", "conditions": "5 μM, 3×/wk/5 wk from 20 weeks of age; versus cTnI-G203S AID(S)-TAT; FIG. 14", "source_text": "Following completion of treatment regimes, mouse hearts were extracted and prepared for Masson's Trichchrome staining based on previously described methods with minor modifications (Van De Vlekkert D, Machado E, d'Azzo A. Analysis of Generalized Fibrosis in Mouse Tissue Sections with Masson's Trichrome Staining. Bio Protoc. 2020; 10(10):e3629). Hearts were washed in PBS and fixed overnight in 10% buffered formalin saline (FSAL-5L; Hurst Scientific, AUS). After fixation, hearts were washed 3×10 min in PBS and incubated overnight in 30% sucrose solution (in PBS). […]\nTo observe the levels of cardiac fibrosis in mice, a minimum of 15 sections of microscopic fields for each animal were selected randomly for histological analysis. Images of heart sections were obtained using a Nikon upright light microscope (DS-Qi2, Japan) at 20× magnification and analysed using ImageJ (NIH). […]\nHere we assessed the efficacy of treating 20-week-old pre-hypertrophic cTnI-G203S mice with 5 μM AID-TAT variant peptides (3×/wk/5 wk) on the development and progression of fibrosis. […] Images were acquired using a Nikon Upright Microscope and collagen volume fraction (%) was determined using ImageJ colour thresholding. […] Values reported as mean±SEM; P values compared with cTnI-G203S AID(S)-TAT as determined by the Kruskal-Wallis test."}, "[1]": {"conditions": "0.5 μM peptide added just prior to reperfusion"}, "[2]": {"conditions": "1 μM peptide added just prior to reperfusion"}}, "note": "Entries after “also recorded” stand apart in the source; their conditions may differ."}
{"substance": "AIDP7-TAT: QQQEEDLKGYLDWITQAE with TAT sequence", "values": [{"measurement": "K0.5 values compared to AID peptide", "setting": "Cavβ2 subunit", "value": "decreased K0.5 values"}, {"measurement": "Creatine Kinase (CK) activity in perfusate", "setting": "Guinea pig hearts; [1]", "value": "reduced compared to the AID(S)-TAT peptide; also recorded: reduced in both P7-TAT (1 μM) and P7-TAT (0.5 μM) compared to the P6-TAT peptide; also recorded: at least as effective as AID-TAT (1 μM)"}, {"measurement": "Lactate Dehydrogenase (LDH) activity in perfusate", "setting": "Guinea pig hearts; [1]", "value": "reduced compared to the AID(S)-TAT peptide; also recorded: reduced LDH at least as well as AID-TAT (1 μM)"}, {"measurement": "GSH:GSSG ratio in whole heart tissue", "setting": "Guinea pig hearts; 0.5 μM peptide", "value": "statistically significant increase in the GSH:GSSG ratio, comparable to the AID-TAT samples at 10 μM"}, {"measurement": "Creatine Kinase (CK) activity in perfusate", "setting": "Guinea pig hearts; [2]", "value": "reduced compared to the AID(S)-TAT peptide; also recorded: reduced in both P7-TAT (1 μM) and P7-TAT (0.5 μM) compared to the P6-TAT peptide"}, {"measurement": "Lactate Dehydrogenase (LDH) activity in perfusate", "setting": "Guinea pig hearts; [2]", "value": "reduced compared to the AID(S)-TAT peptide"}, {"measurement": "GSH:GSSG ratio in whole heart tissue", "setting": "Guinea pig hearts; 1 μM peptide", "value": "statistically significant increase in the GSH:GSSG ratio, comparable to the AID-TAT samples at 10 μM"}, {"measurement": "oxidative stress (CK activity, LDH activity and GSH:GSSG ratio taken together)", "setting": "Guinea pig hearts; same concentration or lower dosages of P7-TAT versus AID-TAT", "value": "more effective than AID-TAT at reducing oxidative stress"}, {"measurement": "left ventricular posterior wall collagen volume fraction (CVF, %)", "setting": "cTnI-G203S mice", "value": "significantly decreased"}]}
